{
  "source": "patent US20080107603A1",
  "about": "“Neuroprotectant methods, compositions, and screening methods thereof” (priority 2002, published 2008)",
  "key": {"p65": {"test_system": "p65", "test": "Immunocytochemistry, nuclear translocation of p65", "assay_type": "cell-based, Rat", "conditions": "Aβ25-35 for 1 h"}, "[1]": {"conditions": "Sheep; cited from earlier work"}, "PC12 cells": {"test_system": "PC12 cells", "test": "TUNEL, Aβ25-35-induced apoptosis", "assay_type": "cell-based, Rat", "conditions": "25 μM Aβ25-35, 36 h; EGT at 0.5 mM or 1 mM", "procedure": "The commercially available in situ death detection kit (Boehringer Mannheim product, Manheim, Germany) was utilized to detect DNA fragmentation. The PC12 cells (5×10^5 cells/1.5 ml in chamber slide) were fixed for 30 min in 10% neutral buffered-formalin solution at room temperature. Endogenous peroxidase was inactivated by incubation with 0.3% (v/v) hydrogen peroxide in methanol for 30 min at room temperature and further incubated in a permeabilizing solution (0.1% sodium citrate and 0.1% Triton X-100) for 2 min at 4° C. The cells were labeled by incubation with the TUNEL reaction mixture for 60 min at 37° C. followed by labeling with peroxidase-conjugated anti-fluorescein anti-goat antibody (Fab fragment) for additional 30 min. After staining with diaminobenzidine for 10 min, cells were rinsed with phosphate-buffered saline (PBS) and mounted with 50% glycerol."}, "Bax and Bcl-XL": {"test_system": "Bax and Bcl-XL", "test": "Western blot, levels of Bax and Bcl-XL", "assay_type": "cell-based, Rat", "conditions": "25 μM Aβ25-35, 36 h", "procedure": "After treatment, cells (1×10^7 cells/7 ml in 100φ dish) were collected and washed with PBS. After centrifugation, cell lysis was carried out at 4° C. by vigorous shaking for 15 min in RIPA buffer (150 mM NaCl, 1% NP-40, 0.5% sodium deoxycholate, 0.1% SDS, 50 mM Tris-HCl (pH 7.4), 50 mM glycerphosphate, 20 mM NaF, 20 mM EGTA, 1 mM DTT, 1 mM Na3VO4 and protease inhibitors). After centrifugation at 15,000 rpm for 15 min, supernatant was separated and stored at −70° C. until use. The protein concentration was determined by using the bicinchrinic acid (BCA) protein assay kit (Pierce, Rockford, Ill., USA). After addition of sample loading buffer, protein samples were electrophoresed on a 12.5% SDS-polyacrylamide gel. Proteins were transferred to polyvinylidene difluoride blots at 300 mA for 3 h. The blots were blocked for 1 h at room temperature in fresh blocking buffer (0.1% Tween-20 in Tris-buffered saline, pH 7.4 containing 5% non-fat dried milk). Dilutions (1:1000) of primary anti-poly(ADP-ribose)polymerase (PARP), anti-Bcl-XL and anti-Bax antibodies were made in PBS with 3% non-fat dry milk. Following three washes with PBST (PBS and 0.1% Tween-20), the blots were incubated with horseradish peroxidase-conjugated secondary antibodies in PBS with 3% non-fat dry milk for 1 h at room temperature. […]"}, "[2]": {"conditions": "Man; cited from earlier work"}},
  "note": "Where two headings read alike, the source gives them in different places.",
  "data": [
    {"smiles": "C[N+](C)(C)[C@@H](Cc1c[nH]c(=S)[nH]1)C(=O)[O-]", "note": "[L-ergothioneine, 2-mercaptohistidine trimethylbetaine]", "values": [
      {"measurement": "Aβ25-35-induced nuclear translocation of p65", "setting": "p65", "result": "inhibitory effect"},
      {"measurement": "L-Ergothioneine Concentration (mg/100 ml blood)", "setting": "[1]", "result": "2-6 mg/100 ml blood"},
      {"measurement": "proportion of TUNEL-positive cells", "setting": "PC12 cells", "result": "lowered the proportion of TUNEL-positive cells"},
      {"measurement": "ratio of Bax to Bcl-XL", "setting": "Bax and Bcl-XL", "result": "substantially reduced"},
      {"measurement": "L-Ergothioneine Concentration (mg/100 ml blood)", "setting": "[2]", "result": "1-4 mg/100 ml blood"}
    ]}
  ]
}
